According to patent publication US9598389B2, “Dihydrobenzofuran derivatives as insecticidal compounds” (SYNGENTA PARTICIPATIONS AG, priority 2013, dated 2017):

Tests used:
Format in all cases: in vivo
[1] = test system: Spodoptera Littoralis (Egyptian Cotton Leaf Worm); experiment: Spodoptera littoralis cotton leaf disc spray test; details: foliar, 72 h, application rate of 200 ppm, L1 larvae, 3 days after infestation, read-out: control (at least one of mortality, anti-feedant effect, growth inhibition)
Procedure: Spodoptera Littoralis (Egyptian Cotton Leaf Worm)
Cotton leaf discs were placed on agar in 24-well microtiter plates and sprayed with aqueous test solutions prepared from 10,000 ppm DMSO stock solutions. After drying the leaf discs were infested with five L1 larvae. The samples were assessed for mortality, anti-feedant effect, and growth inhibition in comparison to untreated samples 3 days after infestation. Control of Spodoptera littoralis by a test sample is when at least one of mortality, anti-feedant effect, and growth inhibition is higher than the untreated sample.

[2] = test system: Heliothis virescens (Tobacco Budworm); experiment: Heliothis virescens egg/larval test on artificial diet; details: application rate of 200 ppm, eggs 0-24 h old, 5 days after infestation, read-out: egg or larval mortality
Procedure: Heliothis virescens (Tobacco Budworm):
Eggs (0-24 h old) were placed in 24-well microtiter plates on artificial diet and treated with aqueous test solutions prepared from 10,000 ppm DMSO stock solutions by pipetting. The samples were assessed for egg and larval mortality 5 days after infestation.

[3] = test system: Plutella xylostella (Diamond Back Moth); experiment: Plutella xylostella L2 larvae test on artificial diet; details: 120 h, application rate of 200 ppm, 5 days after infestation, read-out: effect in at least one of the two categories (mortality or growth inhibition)
Procedure: Plutella xylostella (Diamond Back Moth):
(§1) 24-well microtiter plates with artificial diet were treated with aqueous test solutions prepared from 10,000 ppm DMSO stock solutions by pipetting. After drying, the plates were infested with L2 larvae (10 to 15 per well). The samples were assessed for mortality and growth inhibition in comparison to untreated samples 5 days after infestation.

[4] = test system: Diabrotica balteata (Corn Root Worm); experiment: Diabrotica balteata L2 larvae test on artificial diet; details: 120 h, application rate of 200 ppm, 5 days after infestation, read-out: effect in at least one of the two categories (mortality or growth inhibition)
Procedure: Diabrotica balteata (Corn Root Worm):
as §1, with “(6” for “(10”, “10” for “15”

[5] = test system: Myzus persicae (Green Peach Aphid); experiment: Myzus persicae sucrose solution feeding test; details: 120 h, test rate of 12 ppm, 5 days after infestation
Procedure: Myzus persicae (Green Peach Aphid)
Test compounds from 10,000 ppm DMSO stock solutions were applied by pipette into 24-well microtiter plates and mixed with sucrose solution. The plates were closed with a stretched Parafilm. A plastic stencil with 24 holes was placed onto the plate and infested pea seedlings were placed directly on the Parafilm. The infested plate was closed with a gel blotting paper and another plastic stencil and then turned upside down. The samples were assessed for mortality 5 days after infestation.

[6] = test system: Thrips tabaci (Onion Thrips); experiment: Thrips tabaci sunflower leaf disc spray test; details: foliar, 144 h, application rate of 200 ppm, population of mixed ages, 6 days after infestation
Procedure: Thrips tabaci (Onion Thrips):
(§2) Sunflower leaf discs were placed on agar in 24-well microtiter plates and sprayed with aqueous test solutions prepared from 10,000 ppm DMSO stock solutions. After drying the leaf discs were infested with a thrips population of mixed ages. The samples were assessed for mortality 6 days after infestation.

[7] = test system: Tetranychus urticae (Two-Spotted Spider Mite); experiment: Tetranychus urticae bean leaf disc spray test; details: foliar, 192 h, application rate of 200 ppm, 8 days after infestation, read-out: mortality on mixed population (mobile stages)
Procedure: Tetranychus urticae (Two-Spotted Spider Mite):
as §2, with “Bean” for “Sunflower”, “discs” for “discs were placed”, “were” for “and”, “mite” for “thrips”, “on mixed population (mobile stages) 8” for “6”

O=C(Nc1cccc(-c2ccc3c(c2)CC(c2cc(Cl)cc(Cl)c2)(C(F)(F)F)O3)c1F)C1CC1 (stereo not shown) [Compound 42, N-(3-(2-(3,5-dichlorophenyl)-2-(trifluoromethyl)-2,3-dihydrobenzofuran-5-yl)-2-fluorophenyl)cyclopropanecarboxamide]
≥ 80%: percent control (mortality, anti-feedant effect or growth inhibition) at 200 ppm [1] | mortality at 200 ppm [2]

CCC(=O)Nc1ccnc(-c2cc3c(cc2Cl)OC(c2cc(Cl)cc(Cl)c2)(C(F)(F)F)C3)c1 (stereo not shown) [Compound 136, N-[2-[6-chloro-2-(3,5-dichlorophenyl)-2-(trifluoromethyl)-3H-benzofuran-5-yl]-4-pyridyl]propanamide]
≥ 80%: percent control (mortality, anti-feedant effect or growth inhibition) at 200 ppm [1] | mortality at 200 ppm [2] | percent effect (mortality or growth inhibition) at 200 ppm [3]

O=C(Nc1cc(-c2ccc3c(c2)CC(c2cc(Cl)cc(Cl)c2)(C(F)(F)F)O3)ccn1)C1CC1 (stereo not shown) [Compound 137, N-[4-[2-(3,5-dichlorophenyl)-2-(trifluoromethyl)-3H-benzofuran-5-yl]-2-pyridyl]cyclopropanecarboxamide]
≥ 80%: percent control (mortality, anti-feedant effect or growth inhibition) at 200 ppm [1] | mortality at 200 ppm [2] | percent effect (mortality or growth inhibition) at 200 ppm [3] | percent effect (mortality or growth inhibition) at 200 ppm [4]

O=C(Nc1cccc(-c2ccc3c(c2)CC(c2cc(Cl)cc(Cl)c2)(C(F)(F)F)O3)c1)C1CC1 (stereo not shown) [Compound 141, N-(3-(2-(3,5-dichlorophenyl)-2-(trifluoromethyl)-2,3-dihydrobenzofuran-5-yl)phenyl)cyclopropanecarboxamide]
≥ 80%: percent control (mortality, anti-feedant effect or growth inhibition) at 200 ppm [1] | mortality at 200 ppm [2] | percent effect (mortality or growth inhibition) at 200 ppm [3] | percent effect (mortality or growth inhibition) at 200 ppm [4] | mortality at 12 ppm [5] | mortality at 200 ppm [6]

O=C(Nc1cccc(-c2ccc3c(c2)CC(c2cccc(C(F)(F)F)c2)(C(F)(F)F)O3)c1)C1CC1 (stereo not shown) [Compound 182, N-(3-(2-(trifluoromethyl)-2-(3-(trifluoromethyl)phenyl)-2,3-dihydrobenzofuran-5-yl)phenyl)cyclopropanecarboxamide]
≥ 80%: percent control (mortality, anti-feedant effect or growth inhibition) at 200 ppm [1] | mortality at 200 ppm [2] | percent effect (mortality or growth inhibition) at 200 ppm [3]

CCC(=O)Nc1cc(-c2ccc3c(c2)CC(c2cc(Cl)cc(Cl)c2)(C(F)(F)F)O3)ccc1C#N (stereo not shown) [Compound 198, N-[2-cyano-5-[2-(3,5-dichlorophenyl)-2-(trifluoromethyl)-3H-benzofuran-5-yl]phenyl]propanamide]
≥ 80%: percent control (mortality, anti-feedant effect or growth inhibition) at 200 ppm [1] | mortality at 200 ppm [2] | percent effect (mortality or growth inhibition) at 200 ppm [3] | percent effect (mortality or growth inhibition) at 200 ppm [4] | mortality at 12 ppm [5] | mortality at 200 ppm [6] | mortality at 200 ppm [7]

O=C1CCCN1c1cccc(-c2ccc3c(c2)CC(c2cc(Cl)cc(Cl)c2)(C(F)(F)F)O3)c1 (stereo not shown) [Compound 254, 1-{3-[2-(3,5-Dichloro-phenyl)-2-trifluoromethyl-2,3-dihydro-benzofuran-5-yl]-phenyl}-pyrrolidin-2-one]
≥ 80%: percent effect (mortality or growth inhibition) at 200 ppm [3]

N#Cc1ccc(-c2ccc3c(c2)CC(c2cc(Cl)cc(Cl)c2)(C(F)(F)F)O3)cc1N1CCCC1=O (stereo not shown) [Compound 261, 4-[2-(3,5-Dichloro-phenyl)-2-trifluoromethyl-2,3-dihydro-benzofuran-5-yl]-2-(2-oxo-pyrrolidin-1-yl)-benzonitrile]
≥ 80%: percent control (mortality, anti-feedant effect or growth inhibition) at 200 ppm [1] | percent effect (mortality or growth inhibition) at 200 ppm [3]

CCC(=O)Nc1cc(-c2ccc3c(c2)CC(c2cc(Cl)cc(Cl)c2)(C(F)(F)F)S3)ccc1C#N (stereo not shown) [Compound 267, N-{2-Cyano-5-[2-(3,5-dichloro-phenyl)-2-trifluoromethyl-2,3-dihydro-benzo[b]thiophen-5-yl]-phenyl}-propionamide]
≥ 80%: percent control (mortality, anti-feedant effect or growth inhibition) at 200 ppm [1] | percent effect (mortality or growth inhibition) at 200 ppm [3]

CCC(=O)Nc1cccc(-c2ccc3c(c2)CC(c2cc(Cl)cc(Cl)c2)(C(F)(F)F)S3)c1 (stereo not shown) [Compound 268, N-[3-[2-(3,5-dichlorophenyl)-2-(trifluoromethyl)-3H-benzothiophen-5-yl]phenyl]propanamide]
≥ 80%: percent control (mortality, anti-feedant effect or growth inhibition) at 200 ppm [1] | percent effect (mortality or growth inhibition) at 200 ppm [3] | mortality at 12 ppm [5] | mortality at 200 ppm [6]

CCC(=O)Nc1cccc(-c2ccc3c(c2)CC(c2cc(Cl)cc(Cl)c2)(C(F)(F)F)C3=O)c1 (stereo not shown) [Compound 269, N-{3-[2-(3,5-Dichloro-phenyl)-1-oxo-2-trifluoromethyl-indan-5-yl]-phenyl}-propionamide]
≥ 80%: percent control (mortality, anti-feedant effect or growth inhibition) at 200 ppm [1] | mortality at 200 ppm [2] | percent effect (mortality or growth inhibition) at 200 ppm [3] | percent effect (mortality or growth inhibition) at 200 ppm [4] | mortality at 200 ppm [6]

CCC(=O)Nc1cccc(-c2ccc3c(c2)CC(c2cc(Cl)cc(Cl)c2)(C(F)(F)F)C3O)c1 (stereo not shown) [Compound 270, N-{3-[2-(3,5-Dichloro-phenyl)-1-hydroxy-2-trifluoromethyl-indan-5-yl]-phenyl}-propionamide]
≥ 80%: percent control (mortality, anti-feedant effect or growth inhibition) at 200 ppm [1] | mortality at 200 ppm [2] | percent effect (mortality or growth inhibition) at 200 ppm [3] | percent effect (mortality or growth inhibition) at 200 ppm [4]
